According to patent publication US7071190B2, “Inhibitors to tubulin polymerization” (Rigel Pharmaceuticals, Inc., priority 2002, dated 2006):
Like-named read-outs stand apart in the source and are kept apart here.

System: A549 cells
Assay: Bromodeoxyuridine (BrdU) proliferation assay
Type: cell-based, human
Conditions: for IC50: BrdU ELISA 48 hours after addition of compound, tested 0.03-10 uM, cell line not given (A549 method; SW-480 and MDA-MB-231 also used), read-out: Assay Result (IC50μM); for Activity ranking: most active compounds of the invention / Activity ranking: particularly active examples of the compounds of the invention: antiproliferative activity
Protocol: In order to determine the antiproliferative activity of microtubule inhibitors, A549 cells were plated in 96 well plates at 2000 cells/well 24 hours prior to the addition of a compound of the invention in 80 ul growth media (F12K, 10% FBS, Pen/Strep). Prior to addition to cells, compounds were solubilized in 100% DMSO to 5 mM and serially diluted in 6 semi-log steps in 100% DMSO. The diluted compounds were added to cells by two 15.8-fold dilution steps, the first being a dilution into a 23% ethanol/H2O mixture and the second being a dilution into growth media. Finally, these dilutions were followed by a 1:1 dilution onto cells. The resulting final solvent concentration was 0.2% DMSO/0.75% ethanol. Compounds were tested at final concentrations of 10, 3, 1, 0.3, 0.1 and 0.03 uM. Forty-eight hours after the addition of compound, the effects on cellular proliferation were measured using a cell proliferation BrdU ELISA (Roche Molecular Biochemicals, Cat.#1 669 915).

| Structure (SMILES) | IC50 (Homo sapiens, A549, 48 h) | IC50 | Activity ranking: most active compounds of the invention | Activity ranking: particularly active examples of the compounds of the invention |
| --- | --- | --- | --- | --- |
| CC(C)NC(=S)NNc1ncnc2cc(-c3ccccc3)sc12 [Compound 72] | 0.024 µM | – | most active | particularly active |
| S=C(NCc1ccccc1)NNc1ncnc2cc(-c3ccccc3)sc12 [Compound 57] | 0.23 µM | – | most active | particularly active |
| S=C(NNc1ncnc2cc(-c3cccc(Cl)c3)sc12)NC1CC1 [Compound 42] | 0.146 µM | – | most active | particularly active |
| S=C(NNc1ncnc2cc(-c3cccc(Cl)c3)sc12)Nc1ccccc1 [Compound 35] | 2.79 µM | – | – | particularly active |
| Cc1cc(C)cc(-c2cc3ncnc(NNC(=S)Nc4ccccc4)c3s2)c1 [Compound 50] | 0.927 µM | – | most active | particularly active |
| S=C(NNc1ncnc2cc(-c3ccccc3)sc12)NC1CCCC1 [Compound 20] | 0.071 µM | – | most active | particularly active |
| Cc1cccc(-c2cc3ncnc(NNC(=S)NCCCO)c3s2)c1 [Compound 48] | 1.43 µM | – | – | particularly active |
| COc1cccc(-c2cc3ncnc(NNC(=S)NCC4CCCO4)c3s2)c1 (centres unmarked) [Compound 81] | – | – | – | particularly active |
| COc1ccc(NC(=S)NNc2ncnc3cc(-c4ccccc4)sc23)c(OC)c1 [Compound 14] | – | 26.7 µM | – | – |
| S=C(NNc1ncnc2cc(-c3ccc4c(c3)OCO4)sc12)NC1CC1 [Compound 56] | – | – | – | particularly active |
| NC(=S)NNc1ncnc2cc(-c3ccccc3)sc12 [Compound 26] | 5.75 µM | – | – | particularly active |
| S=C(NC[C@H]1CCCO1)NNc1ncnc2cc(-c3ccccc3)sc12 [Compound 64] | 0.188 µM | – | most active | particularly active |
| COc1cc([N+](=O)[O-])ccc1NC(=S)NNc1ncnc2cc(-c3ccccc3)sc12 [Compound 18] | – | 10.7 µM | – | particularly active |
| OCCCCNC(=S)NNc1ncnc2cc(-c3ccccc3)sc12 [Compound 28] | 6.31 µM | – | – | particularly active |
| Cc1cccc(-c2cc3ncnc(NNC(=S)NCC(O)CO)c3s2)c1 (centres unmarked) [Compound 49] | – | – | – | particularly active |
| Cc1cccc(-c2cc3ncnc(NNC(=S)N[C@@H]4CCC[C@H]4OCc4ccccc4)c3s2)c1 [Compound 47] | 7.16 µM | – | – | particularly active |
| COc1ccc(NC(=S)NNc2ncnc3cc(-c4ccccc4)sc23)c(OC)c1 [Compound 13] | – | 0.38 µM | most active | particularly active |
| S=C(NCC1CCCO1)NNc1ncnc2cc(-c3ccccc3)sc12 (centres unmarked) [Compound 63] | 0.211 µM | – | most active | particularly active |
| COc1ccc(NC(=S)NNc2ncnc3cc(-c4ccccc4)sc23)cc1OC [Compound 15] | 6.7 µM | – | – | particularly active |
| Cc1ccc(-c2cc3ncnc(NNC(=S)Nc4ccccc4)c3s2)cc1C [Compound 51] | 0.622 µM | – | most active | particularly active |
| S=C(NCCc1ccccc1)NNc1ncnc2cc(-c3ccccc3)sc12 [Compound 58] | 1.11 µM | – | – | particularly active |
| S=C(NNc1ncnc2cc(-c3ccccc3)sc12)Nc1ccccc1 [Compound 2] | – | 0.39 µM | most active | particularly active |

Second part, led by results:

| IC50 (Homo sapiens, A549, 48 h) | IC50 | Structure (SMILES) | Activity ranking: most active compounds of the invention | Activity ranking: particularly active examples of the compounds of the invention |
| --- | --- | --- | --- | --- |
| 0.202 µM | – | COCCNC(=S)NNc1ncnc2cc(-c3ccccc3)sc12 [Compound 73] | most active | particularly active |
| 0.187 µM | – | COC(=O)CCNC(=S)NNc1ncnc2cc(-c3ccccc3)sc12 [Compound 76] | most active | particularly active |
| 0.086 µM | – | Cc1cc(C)cc(-c2cc3ncnc(NNC(=S)NC(C)C)c3s2)c1 [Compound 99] | most active | particularly active |
| 0.113 µM | – | CCNC(=S)NNc1ncnc2cc(-c3cccc(C)c3)sc12 [Compound 84] | most active | particularly active |
| 2.2 µM | – | COCCNC(=S)NNc1ncnc2cc(-c3cccc(C(F)(F)F)c3)sc12 [Compound 91] | – | particularly active |
| 0.029 µM | – | COCCCNC(=S)NNc1ncnc2cc(-c3cc(C)cc(C)c3)sc12 [Compound 101] | most active | particularly active |
| 0.044 µM | – | CCCNC(=S)NNc1ncnc2cc(-c3cccc(C)c3)sc12 [Compound 85] | most active | particularly active |
| 8.15 µM | – | S=C(NCC(c1ccccc1)c1ccccc1)NNc1ncnc2cc(-c3ccccc3)sc12 [Compound 105] | – | particularly active |
| 0.028 µM | – | COCCCNC(=S)NNc1ncnc2cc(-c3cccc(C)c3)sc12 [Compound 89] | most active | particularly active |
| 0.013 µM | – | COCCNC(=S)NNc1ncnc2cc(-c3cc(C)cc(C)c3)sc12 [Compound 100] | most active | particularly active |
| 0.127 µM | – | Cc1cccc(-c2cc3ncnc(NNC(=S)NCc4ccco4)c3s2)c1 [Compound 83] | most active | particularly active |
| 0.719 µM | – | Cc1cccc(-c2cc3ncnc(NNC(=S)NCC4CCCO4)c3s2)c1 (centres unmarked) [Compound 79] | most active | particularly active |
| 0.026 µM | – | Cc1cccc(-c2cc3ncnc(NNC(=S)NC(C)C)c3s2)c1 [Compound 86] | most active | particularly active |
| 1.19 µM | – | COCCNC(=S)NNc1ncnc2cc(-c3ccc(OC)cc3)sc12 [Compound 92] | – | particularly active |
| 0.054 µM | – | COCCCNC(=S)NNc1ncnc2cc(-c3ccccc3)sc12 [Compound 74] | most active | particularly active |
| 0.025 µM | – | Cc1cc(C)cc(-c2cc3ncnc(NNC(=S)NCC4CCCO4)c3s2)c1 (centres unmarked) [Compound 98] | most active | particularly active |
